Laboratory results: patent publication EP0233461B2, “4,5,6-Substituted-2-pyrimidinamines” (AMERICAN CYANAMID COMPANY, priority 1986, dated 1987)
Counter-ions that a name gives are not always drawn.

test system: human basophils; experiment: Inhibition of histamine release from immunologically stimulated human basophils; type: cell-based; settings: Homo sapiens, concentration causing 50% inhibition of histamine release, by linear regression; active if IC50 ≦ 48 µM; read-out: IC50
Experimental: The blood is allowed to sediment at room temperature in two 50 ml polycarbonate centrifuge tubes until a sharp interface develops between the red cells and plasma (60-90 minutes). The plasma (top) layer from each tube is withdrawn by pipet and transferred to respective 50 ml polycarbonate tubes. The plasma is centrifuged for 8 minutes at 110X G at 4°C. The supernatant is carefully poured off as completely as possible and the cell button is resuspended in 2-3 ml of Tris-A buffer using a siliconized Pasteur pipet. The resuspension is accomplished by drawing the liquid gently in an out of the pipet, with the tip below the liquid until an even suspension of cells is obtained. Sufficient Tris-A buffer is then added to bring the volume in the tube to about 45 ml and the tube is centrifuged at 110X G for 8 minutes at 4°C. The supernatant is poured off and the cell button is resuspended and centrifuged as described above. The supernatant is poured off and the cell button is suspended in 2-3 ml of Tris-ACM buffer to make the final volume sufficient to allow addition to the reaction tubes. Reaction tubes containing anti-IgE or antigens, either alone or with test compound in a total volume of 0.2 ml are prepared and placed in a 37°C bath. The cells are warmed to 37°C and frequently swirled to ensure an even suspension, while 1.0 ml aliquots are added to each reaction tube. The tubes are then incubated for 60 minutes at 37°C, vortexing the tubes gently every 15 minutes to keep the cells evenly suspended. When the reaction is complete, the tubes are centrifuged at 4°C for 10 minutes at 1500 rpm to sediment the cells. […] Blanks and totals are included in each test. The blanks have cells and all reagents except antigen or anti-IgE. The totals contain 0.24 ml of 8% perchloric acid, one ml of cells and 0.2 ml of buffer. All samples are then centrifuged to remove the precipitate protein. […] The automated system consists of the following Technicon Autoanalyzer II components Sampler IV, Dual-Speed Proportioning Pump III, Fluoronephelometer with a narrow pass primary filter 7-60 and a secondary filter 3-74, Recorder, and Digital Printer. The manifold used is the one described by Siraganian vide supra, with the following modifications: the dialyzer is omitted; all pumping tubes pass through a single proportioning pump with large capacity and twice the volume of sample is taken for anaylsis. The automated chemistry consists of the following steps: Extraction from alkaline saline into butanol, back extraction into dilute hydrochloric acid by addition of heptane, reaction of histamine with o-phthaldialdehyde (OPT) at high pH and conversion of the OPT adduct to a stable fluorophore with phosphoric acid. The reaction product is then passed through the fluorometer. The full scale response is adjusted to 50 ng histamine base with a threshold sensitivity of approximately 0.5 ng. The instrument blank (wash) is substracted from the ng histamine of each sample. Then the ng histamine of each sample is divided by the mean of the three totals (cells lysed with perchloric acid) to obtain percent release. Control samples contain antigen but no test compound. Blank (or spontaneous release) samples contain neither antigen nor test compound. The mean of the blanks (three replicates) is subtracted from the percent release for controls and test compounds.

IC50 [nM] | Structure (SMILES)
1400 | CNc1ccc(Nc2nccc(-c3ccccn3)n2)cc1 [N-Methyl-N'-[4-(2-pyridinyl)-2-pyrimidinyl]-1,4-benzenediamine]
400 | c1cc(Nc2nccc(-c3ccncc3)n2)cc(-n2ccnc2)c1 [N-[3-(1H-Imidazol-1-yl)phenyl]-4-(4-pyridinyl)-2-pyrimidinamine]
400 | FC(F)(F)c1cc(Nc2nccc(-c3ccncc3)n2)ccc1-n1ccnc1 [N-[4-(1H-Imidazol-1-yl)-3-(trifluoromethyl)-phenyl]-4-(4-pyridinyl)-2-pyrimidinamine]
17700 | CCc1ccc(Nc2nccc(-c3cc[n+]([O-])cc3)n2)cc1 [N-(4-Ethylphenyl)-4-(4-pyridinyl)-2-pyrimidinamine, pyridine-1-oxide]
600 | CN(C)c1ccc(Nc2nccc(-c3cccs3)n2)cc1 [N,N-Dimethyl-N'-[4-(2-thienyl)-2-pyrimidinyl]-1,4-benzenediamine]
1600 | FC(F)(F)c1cc(Nc2nccc(-c3ccccn3)n2)ccc1-n1ccnc1 [N-[4-(1H-Imidazol-1-yl)-3-(tri-fluoromethyl)phenyl]-4-(2-pyridin-yl)-2-pyrimidinamine]
3900 | Cc1ccccc1Nc1nccc(-c2ccncc2)n1 [N-(2-Methylphenyl)-4-(4-pyridinyl)-2-pyrimidinamine]
4400 | CN(C)c1ccc(Nc2nccc(-c3ccccn3)n2)cc1 [N,N-Dimethyl-N'-[4-(2-pyridinyl)-2-pyrimidinyl]-1,4-benzenediamine, dihydrochloride]
1200 | COc1cccc(Nc2nccc(-c3cc4ccccc4o3)n2)c1 [4-(2-Benzofuranyl)-N-(3-methoxyphenyl)-2-pyrimidinamine]
2000 | Cc1cc(-c2ccnc(Nc3ccccc3)n2)c(C)o1 [4-(2,5-Dimethyl-3-furanyl)-N-phenyl-2-pyrimidinamine]
5100 | CON=C(C)c1ccc(Nc2nccc(-c3cccnc3)n2)cc1 [1-[4-[[4-(3-Pyridinyl)-2-pyrimidinyl]amino]phenyl]ethanone, O-methyloxime]
15600 | COc1ccc(Nc2nccc(-c3ccsc3)n2)cc1 [N-(4-Methoxyphenyl)-4-(3-thienyl)-2-pyrimidinamine]
700 | Cc1cc(C)cc(Nc2nccc(-c3ccco3)n2)c1 [N-(3,5-Dimethylphenyl)-4-(2-furanyl)-2-pyrimidinamine]
48000 | CCc1cccc(Nc2nccc(-c3cccs3)n2)c1 [N-(3-Ethylphenyl)-4-(2-thienyl)-2-pyrimidinamine]
1900 | Fc1ccc(Nc2nccc(-c3ccncc3)n2)cc1 [N-(4-Fluorophenyl)-4-(4-pyridinyl)-2-pyrimidinamine]
5100 | Oc1ccc(Nc2nccc(-c3cccnc3)n2)cc1 [4-[[4-(3-Pyridinyl)-2-pyrimidinyl]amino]phenol]
2200 | c1coc(-c2ccnc(Nc3ccc(-n4ccnc4)cc3)n2)c1 [4-(2-Furanyl)-N-[4-(1H-imidazol-1-yl)phenyl]-2-pyrimidinamine]
12300 | c1cc(-c2ccnc(Nc3ccc(-n4ccnc4)cc3)n2)ccn1 [N-[4-(1H-Imidazol-1-yl)phenyl]-4-(4-pyridinyl)-2-pyrimidinamine]

IC50 [nM] | Structure (SMILES)
12400 | CCOC(=O)c1ccc(Nc2nccc(-c3cccnc3)n2)cc1 [4-[[4-(3-Pyridinyl)-2-pyrimidinyl]amino]-benzoic acid, ethyl ester]
1800 | CC(=O)Nc1ccc(Nc2nccc(-c3cccnc3)n2)cc1C
4600 | CC(NC=O)c1cccc(Nc2nccc(-c3cccnc3)n2)c1 (stereo not drawn) [N-[1-[3-[[4-(3-Pyridinyl)-2-pyrimidinyl]amino]phenyl]ethyl]formamide]
1600 | Cc1ccc(-c2ccnc(Nc3cccc(N(C)C)c3)n2)o1 [N,N-Dimethyl-N'-[4-(5-methyl-2-furanyl)-2-pyrimidinyl]-1,3-benzenediamine]
< 24000 | Cc1cc(-c2ccnc(Nc3cccc(N(C)C)c3)n2)c(C)o1 [N'-[4-(2,5-Dimethyl-3-furanyl)-2-pyrimidinyl]-N,N-dimethyl-1,3-benzenediamine]
< 48000 | FC(F)(F)c1cccc(Nc2nccc(-c3ccco3)n2)c1 [4-(2-Furanyl)-N-[3-(trifluoromethyl)phenyl]-2-pyrimidinamine]
1100 | CCc1cccc(Nc2nccc(-c3ccsc3)n2)c1 [N-(3-Ethylphenyl)-4-(3-thienyl)-2-pyrimidinamine]
8300 | COc1ccc(Nc2nccc(-c3ccccn3)n2)cc1 [N-(4-Methoxyphenyl)-4-(2-pyridinyl)-2-pyrimidinamine]
3000 | c1ccc(-c2ccnc(Nc3cccc4ccccc34)n2)nc1 [N-1-Naphthalenyl-4-(2-pyridinyl)-2-pyrimidinamine]
28000 | CCN(CC)c1ccc(Nc2nccc(-c3ccc(C)o3)n2)cc1 [N,N-Diethyl-N'-[4-(5-methyl-2-fur-anyl)-2-pyrimidinyl]-1,4-benzene-diamine]
< 48000 | CCc1ccc(Nc2ncc(C)c(-c3ccncc3)n2)cc1 [N-(4-Ethylphenyl)-5-methyl-4-(4-pyridinyl)-2-pyrimidinamine]
2300 | COc1cccc(Nc2nccc(-c3ccc(C)s3)n2)c1 [N-(3-Methoxyphenyl)-4-(5-methyl-2-thienyl)-2-pyrimidinamine]
11100 | Cc1cccc(Nc2nccc(-c3ccc[nH]3)n2)c1 [N-(3-Methylphenyl)-4-(1H-pyrrol-2-yl)-2-pyrimidinamine]
13400 | CCc1ccc(Nc2nccc(-c3ccc(C)nc3)n2)cc1 [N-(4-Ethylphenyl)-4-(6-methyl-3-pyridinyl)-2-pyrimidinamine]
2100 | CCOC(=O)C(=O)N(c1ccccc1)c1nccc(-c2ccncc2)n1 [Oxo[phenyl[4-(4-pyridinyl)-2-pyrimidinyl]amino]acetic acid, ethyl ester]
700 | CC(C)(C)c1ccc(Nc2nccc(-c3cccnc3)n2)cc1 [N-[4-(1,1-Dimethylethyl)phenyl]-4-(3-pyridinyl)-2-pyrimidinamine]
2800 | CCN(CC)CCOc1cccc(Nc2nccc(-c3cccnc3)n2)c1 [N-[3-[2-(Diethylamino)ethoxy]phenyl]-4-(3-pyridinyl)-2-pyrimidinamine]
200 | CCN(CC)CCOc1ccc(Nc2nccc(-c3cccnc3)n2)cc1 [N-[4-[2-Diethylamino)ethaxy]phenyl]-4-(3-pyridinyl)-2-pyrimidinamine]

Structure (SMILES) | IC50 [nM]
Cc1cccc(Nc2nccc(-c3cccs3)n2)c1 [N-(3-Methylphenyl)-4-(2-thienyl)-2-pyrimidinamine] | 300
FC(F)(F)c1cccc(Nc2nccc(-c3ccccn3)n2)c1 [4-(2-Pyridinyl)-N-[3-(trifluoromethyl)phenyl]-2-pyrimidinamine] | 2900
FC(F)(F)c1cccc(Nc2nccc(-c3cccnc3)n2)c1 [4-(3-Pyridinyl)-N-[3-(trifluoromethyl)phenyl]-2-pyrimidinamine, hydrochloride] | 700

same assay, conditions: concentration causing 50% inhibition of histamine release, by linear regression; active if IC50 ≦ 48 µM; dihydrochloride; read-out: IC50

IC50 [nM] | Structure (SMILES)
500 | CN(C)c1cccc(Nc2nccc(-c3ccncc3)n2)c1 [N,N-Dimethyl-N'-[4-(4-pyridinyl)-2-pyrimidin-yl]-1,3-benzenediamine, dihydrochloride]

same assay, conditions: concentration causing 50% inhibition of histamine release, by linear regression; active if IC50 ≦ 48 µM; read-out: IC50

Structure (SMILES) | IC50 [nM]
CN(C)c1ccc(Nc2nccc(-c3cccnc3)n2)cc1 [N,N-Dimethyl-N'-[4-(3-pyridinyl)-2-pyrimidinyl]-1,4-benzenediamine] | 3700
Cc1cc(C)cc(Nc2nccc(-c3cccnc3)n2)c1 [N-(3,5-Dimethylphenyl)-4-(3-pyridinyl)-2-pyrimidinamine] | 800
c1ccc(Nc2nccc(-c3cccnc3)n2)cc1 [N-Phenyl-4-(3-pyridinyl)-2-pyrimidinamine] | 900

same assay, conditions: concentration causing 50% inhibition of histamine release, by linear regression; active if IC50 ≦ 48 µM; sulfate

Structure (SMILES) | IC50 [nM]
Cc1cnc(Nc2ccccc2)nc1-c1ccco1 [4-(2-Furanyl)-5-methyl-N-phenyl-2-pyrimidinamine, sulfate] | 5000

same assay, conditions: concentration causing 50% inhibition of histamine release, by linear regression; active if IC50 ≦ 48 µM; trihydrochloride; read-out: IC50

IC50 [nM] | Structure (SMILES)
400 | CN(C)c1ccc(Nc2nccc(-c3ccncc3)n2)cc1 [N,N-Dimethyl-N'-[4-(4-pyridinyl)-2-pyrimidinyl]-1,4-benzenediamine, trihydrochloride]
